Laboratory results published in patent US7923462B2, “Catechol derivative, pharmaceutical composition containing the same, use of the catechol derivative, and use of the pharmaceutical composition” (Kissei Pharmaceutical Co., Ltd., priority 2007, dated 2011).

Tests used:
[1] = test system: unilateral 6-hydroxydopamine-lesioned hemi-Parkinsonian rats; assay: Potentiation of the efficacy of L-dopa, turning behavior; type: in vivo, Sprague-Dawley rats; settings: 10 mg/kg oral with 5 mg/kg L-dopa and 30 mg/kg carbidopa; for Total counts: contralateral rotation counts; for Duration: duration of contralateral turning response
[2] = molecular target: T1, recombinant human COMT (Homo sapiens, UniProt P21964); assay: Human COMT inhibitory potency; type: biochemical; settings: catechol substrate, [3H]-S-adenosyl-L-methionine, 37° C. 30 minutes
T1 construct: GST (N, cleaved yes); made in house; host or cells: E. coli BL21 (DE3) CODON PLUS RP
T1 sequence (P21964 with tags, fused parts or gaps): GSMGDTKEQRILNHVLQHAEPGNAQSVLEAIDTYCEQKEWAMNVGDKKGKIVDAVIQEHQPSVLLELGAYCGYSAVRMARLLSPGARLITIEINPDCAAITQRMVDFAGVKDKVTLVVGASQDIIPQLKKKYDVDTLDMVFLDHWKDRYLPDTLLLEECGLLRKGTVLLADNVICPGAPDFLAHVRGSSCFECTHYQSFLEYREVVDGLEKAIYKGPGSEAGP

[3] = test system: rat cryopreserved hepatocytes; assay: Rat hepatocyte toxicities (cell viability, ATP activity); type: cell-based; settings: concentration that shows 50% of the number of viable cells of control, 4 hours at 37° C.
[4] = Evaluation of plasma L-dopa concentration; type: in vivo, Sprague-Dawley rats; settings: percentage of control group, test compound 3 mg/kg oral, blood 2 hours later; for Plasma L-dopa (%) 4 hour: L-dopa 5 mg/kg and carbidopa 30 mg/kg oral 4 hours after; for Plasma L-dopa (%) 6 hour: L-dopa 5 mg/kg and carbidopa 30 mg/kg oral 6 hours after

| Compound | IC50 [2] | Total counts [1] | Duration [1] | EC50 [3] | Plasma L-dopa (%) 4 hour [4] | Plasma L-dopa (%) 6 hour [4] |
| --- | --- | --- | --- | --- | --- | --- |
| CCOC(=O)c1c(-c2noc(C)n2)cc(O)c(O)c1[N+](=O)[O-] [Compound 1-14] |  | 1678.4 | 275.0 min |  |  |  |
| Cc1noc(-c2cc(O)c(O)c([N+](=O)[O-])c2)n1 [Comparative example 1, 5-(3-methyl-[1,2,4]oxadiazol-5-yl)-3-nitro-benzene-1,2-diol, reference compound] | 0.0132 µM |  |  | 172 µM | 143.3 ± 13.3% | 106.9 ± 18.2% |
| Cc1nc(-c2cc(O)c(O)c([N+](=O)[O-])c2C(=O)c2ccccc2)no1 [Compound 1-1, [3,4-Dihydroxy-6-(5-methyl-[1,2,4]oxadiazol-3-yl)-2-nitro-phenyl]phenylmethanone] | 0.0094 µM | 2060.8 | 293.8 min | 683 µM | 182.9 ± 5.0% | 189.2 ± 32.8% |
| Cc1nc(-c2cc(O)c(O)c([N+](=O)[O-])c2C(=O)C2CCCCC2)no1 [Compound 1-20] | 0.0087 µM |  |  |  |  |  |
| COCc1nc(-c2cc(O)c(O)c([N+](=O)[O-])c2C(=O)OC)no1 [Compound 1-9] | 0.0077 µM |  |  | > 1000 µM |  |  |
| Cc1ccc(C(=O)c2cc(O)c(O)c([N+](=O)[O-])c2)cc1 [Tolcapone, 3,4-dihydroxy-4′-methyl-5-nitro-benzophenone, reference compound] |  |  |  | 34.3 µM |  |  |
| CC(=O)c1c(-c2noc(C)n2)cc(O)c(O)c1[N+](=O)[O-] [Compound 1-2] |  | 2103.0 | 312.5 min | 645 µM |  |  |
| Cc1nc(-c2cc(O)c(O)c([N+](=O)[O-])c2C(=O)c2ccccc2F)no1 [Compound 1-22] | 0.0083 µM |  |  | 523 µM |  |  |

Continued by falling IC50 [2], values first:

| IC50 [2] | Compound | Total counts [1] | Duration [1] | EC50 [3] | Plasma L-dopa (%) 4 hour [4] | Plasma L-dopa (%) 6 hour [4] |
| --- | --- | --- | --- | --- | --- | --- |
| 0.0093 µM | COC(=O)c1c(-c2noc(C)n2)cc(O)c(O)c1[N+](=O)[O-] [Compound 1-5, methyl 3,4-dihydroxy-6-(5-methyl-[1,2,4]-oxadiazol-3-yl)-2-nitrobenzoate] | 2051.9 | 321.3 min | > 1000 µM |  |  |
| 0.0088 µM | Cc1nc(-c2cc(O)c(O)c([N+](=O)[O-])c2C(=O)C(=O)NC2CCCCC2)no1 [Compound 1-40] |  |  |  |  |  |
| 0.0081 µM | Cc1nc(-c2cc(O)c(O)c([N+](=O)[O-])c2C(=O)C(C)C)no1 [Compound 1-3, 1-[3,4-dihydroxy-6-(5-methyl-[1,2,4]-oxadiazol-3-yl)-2-nitrophenyl]-2-methylpropane-1-one] |  |  | 698 µM |  |  |
| 0.0076 µM | Cc1nc(-c2cc(O)c(O)c([N+](=O)[O-])c2C(=O)c2ccno2)no1 [Compound 1-24] |  |  | > 1000 µM |  |  |
| 0.0047 µM | CCOCCc1nc(-c2cc(O)c(O)c([N+](=O)[O-])c2C(C)=O)no1 [Compound 1-37] |  |  |  |  |  |
| 0.0047 µM | Cc1nc(-c2cc(O)c(O)c([N+](=O)[O-])c2C(=O)C(=O)N(C)C2CCCCC2)no1 [Compound 1-41] |  |  |  |  |  |
